Experimental data reported in article PMC3914206.

Tests used:
Type in all cases: binding
Design in all cases: KINOMEscan: ABL1(F317L)-phosphorylated / KINOMEscan: ABL1(H396P)-nonphosphorylated / KINOMEscan: ABL1(H396P)-phosphorylated / KINOMEscan: ABL1(M351T)-phosphorylated / KINOMEscan: ABL1(T315I)-phosphorylated / KINOMEscan: ABL1-nonphosphorylated / KINOMEscan: ABL1-phosphorylated / KINOMEscan: ACVR2A / KINOMEscan: ACVR2B / KINOMEscan: ADCK3 / KINOMEscan: ADCK4 / KINOMEscan: AKT1 / KINOMEscan: AKT3 / KINOMEscan: ALK / KINOMEscan: ARK5 / KINOMEscan: AURKA / KINOMEscan: AURKC / KINOMEscan: BIKE / KINOMEscan: BMPR1A / KINOMEscan: BMPR1B / KINOMEscan: BMX / KINOMEscan: BRK / KINOMEscan: BRSK1 / KINOMEscan: BRSK2 / KINOMEscan: CAMK1 / KINOMEscan: CAMK1D / KINOMEscan: CAMK1G / KINOMEscan: CAMK2A / KINOMEscan: CAMK2B / KINOMEscan: AAK1 / KINOMEscan: CAMK2D / KINOMEscan: CAMK2G / KINOMEscan: ABL1(F317I)-nonphosphorylated / KINOMEscan: ABL1(F317I)-phosphorylated / KINOMEscan: ABL1(F317L)-nonphosphorylated: unit: % Ctrl
panel of 442 kinases [1] = molecular target: T1, panel of 442 kinases (Homo sapiens, UniProt P00519, M351T); settings: Compound Concentration 10 µM
T1 construct: purchased KINOMEscan
Description: (§1) We assessed the selectivity of members of this scaffold using the KINOMEscan methodology across a near comprehensive panel of 442 kinases [[18,27]].

panel of 442 kinases [2] = molecular target: T2, panel of 442 kinases (Homo sapiens, UniProt P29597); settings: compound concentration 10 µM; for % Ctrl, TYK2(JH1domain-catalytic): kinase TYK2(JH1domain-catalytic); for % Ctrl, TYK2(JH2domain-pseudokinase): kinase TYK2(JH2domain-pseudokinase)
T2 construct: purchased KINOMEscan
Description: as §1

panel of 442 kinases [3] = molecular target: T3, panel of 442 kinases (Homo sapiens, UniProt Q9UBE8); settings: Compound Concentration 10 µM
T3 construct: purchased KINOMEscan
T3 sequence (Q9UBE8 1-527): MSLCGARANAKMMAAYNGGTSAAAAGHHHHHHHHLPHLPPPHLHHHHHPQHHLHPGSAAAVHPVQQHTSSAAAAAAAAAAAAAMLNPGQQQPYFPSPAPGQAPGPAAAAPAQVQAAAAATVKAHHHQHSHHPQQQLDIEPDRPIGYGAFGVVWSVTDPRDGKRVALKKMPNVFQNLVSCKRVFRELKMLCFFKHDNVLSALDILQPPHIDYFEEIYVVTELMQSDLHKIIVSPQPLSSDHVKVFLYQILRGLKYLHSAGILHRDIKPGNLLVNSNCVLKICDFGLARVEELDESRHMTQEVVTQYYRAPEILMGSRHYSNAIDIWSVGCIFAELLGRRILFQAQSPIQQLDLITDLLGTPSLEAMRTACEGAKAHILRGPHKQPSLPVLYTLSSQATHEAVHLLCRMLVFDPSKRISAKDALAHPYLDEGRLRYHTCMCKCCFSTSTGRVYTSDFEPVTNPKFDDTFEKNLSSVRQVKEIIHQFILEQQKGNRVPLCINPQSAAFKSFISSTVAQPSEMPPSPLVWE
Description: as §1

T2 sequence (P29597 whole entry): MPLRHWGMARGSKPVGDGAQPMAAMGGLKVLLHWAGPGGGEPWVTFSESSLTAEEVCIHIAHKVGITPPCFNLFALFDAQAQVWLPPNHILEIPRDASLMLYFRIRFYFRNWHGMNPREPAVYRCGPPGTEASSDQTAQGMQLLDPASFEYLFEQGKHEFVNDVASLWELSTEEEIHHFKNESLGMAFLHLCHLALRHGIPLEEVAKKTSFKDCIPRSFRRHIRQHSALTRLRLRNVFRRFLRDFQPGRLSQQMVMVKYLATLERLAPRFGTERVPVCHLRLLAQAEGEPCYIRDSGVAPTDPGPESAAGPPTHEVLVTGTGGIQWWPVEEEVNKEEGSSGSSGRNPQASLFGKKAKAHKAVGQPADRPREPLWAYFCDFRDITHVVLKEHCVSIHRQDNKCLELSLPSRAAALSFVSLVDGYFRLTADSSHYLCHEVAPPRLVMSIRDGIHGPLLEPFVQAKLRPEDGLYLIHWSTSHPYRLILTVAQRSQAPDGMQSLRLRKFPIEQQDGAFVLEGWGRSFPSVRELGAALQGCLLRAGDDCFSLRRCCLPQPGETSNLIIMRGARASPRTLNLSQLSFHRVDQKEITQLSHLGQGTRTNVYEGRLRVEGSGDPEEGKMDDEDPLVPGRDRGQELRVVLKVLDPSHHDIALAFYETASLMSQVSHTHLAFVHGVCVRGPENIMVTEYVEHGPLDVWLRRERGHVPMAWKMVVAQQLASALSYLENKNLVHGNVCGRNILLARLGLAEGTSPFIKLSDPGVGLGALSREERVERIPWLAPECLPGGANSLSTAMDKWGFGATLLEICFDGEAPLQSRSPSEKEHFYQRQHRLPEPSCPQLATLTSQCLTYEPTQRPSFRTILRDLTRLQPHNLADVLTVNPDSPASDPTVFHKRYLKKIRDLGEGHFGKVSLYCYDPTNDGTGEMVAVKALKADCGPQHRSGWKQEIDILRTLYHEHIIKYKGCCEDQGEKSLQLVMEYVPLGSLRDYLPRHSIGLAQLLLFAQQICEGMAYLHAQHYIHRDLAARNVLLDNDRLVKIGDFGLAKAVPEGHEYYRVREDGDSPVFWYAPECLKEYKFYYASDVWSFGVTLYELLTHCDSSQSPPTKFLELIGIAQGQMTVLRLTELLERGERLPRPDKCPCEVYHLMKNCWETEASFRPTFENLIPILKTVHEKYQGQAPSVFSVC

SMILES	KINOMEscan: ABL1(M351T)-phosphorylated (panel of 442 kinases [1])	% Ctrl, TYK2(JH1domain-catalytic) (panel of 442 kinases [2])	% Ctrl, TYK2(JH2domain-pseudokinase) (panel of 442 kinases [2])	KINOMEscan: NLK (panel of 442 kinases [3])
CCOc1cc(C(=O)N2CCC(N3CCN(C)CC3)CC2)ccc1Nc1ncc2c(n1)N(C1CCCC1)c1ccccc1C(=O)N2C [Compound 26]	89	81 % Ctrl	100 % Ctrl	78
COc1cc(C(=O)N2CCC(N3CCN(C)CC3)CC2)ccc1Nc1ncc2c(n1)N(C1CCCC1)c1ccccc1C(=O)N2C [Compound 25, 11-cyclopentyl-2-((2-methoxy-4-(4-(4-methylpiperazin-1-yl)piperidine-1-carbonyl)phenyl)amino)-5-methyl-5H-benzo[e]pyrimido[5,4-b][1,4]diazepin-6(11H)-one]	80	100 % Ctrl	100 % Ctrl	63
COc1cc(C(=O)N2CCC(N3CCN(C)CC3)CC2)ccc1Nc1ncc2c(n1)N1CCc3cccc(c31)C(=O)N2C [Compound 24]	77	–	–	68
COc1cc(C(=O)N2CCC(N3CCN(C)CC3)CC2)ccc1Nc1ncc2c(n1)N(C)c1ccccc1C(=O)N2C [15 (LRRK2-IN-1)]	94	52 % Ctrl	100 % Ctrl	50
